pEC50, pIC50: −log10 of the molar value.

Common to all, as to test: microbe, parasite or virus in culture
Format in all cases: cell-based

Test [1] relates to SARS-CoV-2 Wuhan strain from VIDO (SB). The following applies: Severe acute respiratory syndrome coronavirus 2, Calu-3.
Test [2] deals with SARS-CoV-2 South Africa (501Y.V2). The following applies: Severe acute respiratory syndrome coronavirus 2, Calu-3.
Test [3] has as its system SARS-CoV-2 England (VOC 202012/01).
Test [4] has as its system SARS-CoV-2 Nigeria (484). The following applies: Severe acute respiratory syndrome coronavirus 2, Calu-3.

In general, pIC50 refers to −log10 of the IC50, conventionally taken in molar units. Lower therefore signals a high IC50. Turning to `COc1c2n(c3ccccc13)[C@]1(O)C(=O)N(C)C(=O)[C@]1(O)c1c-2[nH]c2ccc(Cl)cc12` [CA, (11S,15R)-7-chloro-11,15-dihydroxy-23-methoxy-13-methyl-3,13,16-triazahexacyclo[14.7.0.0^2,10.0^4,9.0^11,15.0^17,22]tricosa-1(23),2(10),4(9),5,7,17,19,21-octaene-12,14-dione], the pIC50 in test [1] is 7.24; in test [2], 7.91; in test [3] (Severe acute respiratory syndrome coronavirus 2, Calu-3), 9.10; in test [4], 7.91. In addition, the pEC50 in test [3] (Severe acute respiratory syndrome coronavirus 2, Calu-3, read-out: ED50) was about 9.10.

These data come from patent US12643899B2, “Antiviral agents, uses thereof and methods for their preparation” (The University of British Columbia, priority 2020, dated 2026).
